Among the test systems are K-562 leukemia; HOP-92 NSCLC; IGROV1 ovarian; MALME-3M melanoma; SW-620 colon; UO-31 renal; DU-145 prostate; CAKI-1 renal; A498 renal; TK-10 renal; RPMI-8226 leukemia; PC-3 prostate; SF-539 CNS; HCT-15 colon; HOP-62 NSCLC; RXF 393 renal; A549 NSCLC; OVCAR-4 ovarian; SNB-75 CNS; NCI-H226 lung; BT-549 breast; T-47D breast; ACHN renal; NCI-H522 lung; CCRF-CEM leukemia; HCT-116 colon; SF-268 CNS; M14 melanoma; LOX IMVI melanoma; HCC-2998 colon; NCI-H460 lung; HL-60(TB) leukemia; UACC-62 melanoma; MDA-MB-435; NCI-H23 lung; NCI/ADR-RES ovarian; OVCAR-8 ovarian; SNB-19 CNS; EKVX NSCLC; HT29 colon; KM12 colon; SN12C renal; SK-MEL-5 melanoma; HS 578T breast; MCF7 breast; MDA-MB-231 breast; SK-MEL-2 melanoma; SK-MEL-28 melanoma; MDA-MB-468 breast; UACC-257 melanoma; 786-0 renal; COLO 205 colon; MOLT-4 leukemia; SK-OV-3 ovarian; OVCAR-5 ovarian; SF-295 CNS; U251 CNS; OVCAR-3 ovarian.

What all share (assay): inhibition of tumour cell growth, NCI panel, 48 h

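Dose response: 5 concentrations. Exposure: 48 h. Format: 96-well plates. Endpoint: linear interpolation; highest concentration if not reached. GI50 marks 50% less growth. TGI: total growth inhibition.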

As for `CCOc1ccccc1NC(=O)N/C(N)=N/c1nc2ccccc2s1`, the GI50 with K-562 leukemia was below 10 nM; in the assay with HOP-92 NSCLC it was 6330 nM; with IGROV1 ovarian, 27.4 nM; in the assay on MALME-3M melanoma, below 18.5 nM; with SW-620 colon it was below 17.5 nM; in the assay with UO-31 renal it was below 30.8 nM. Also, the GI50 in the assay on DU-145 prostate was 28.7 nM; with CAKI-1 renal it was below 14.1 nM; with A498 renal, 22100 nM; with TK-10 renal it was above 39400 nM; in the assay with RPMI-8226 leukemia, 37.1 nM; in the assay on PC-3 prostate, 25.2 nM. For the same compound, the GI50 in the assay on SF-539 CNS was below 11.9 nM; with HCT-15 colon, below 16.8 nM; in the assay with HOP-62 NSCLC it was below 20 nM; in the assay on RXF 393 renal, below 12.9 nM; in the assay with A549 NSCLC it was 53.2 nM; in the assay with OVCAR-4 ovarian, 11100 nM. Further, the GI50 with SNB-75 CNS was below 10 nM; in the assay with NCI-H226 lung, 43.5 nM; in the assay on BT-549 breast, 24.6 nM; in the assay on T-47D breast it was 13900 nM; with ACHN renal it was below 15.2 nM; in the assay with NCI-H522 lung, below 10 nM. For the same compound, the GI50 in the assay with CCRF-CEM leukemia is 28.9 nM; with HCT-116 colon it was below 15.7 nM; with SF-268 CNS, 84.6 nM; in the assay on M14 melanoma it was below 14 nM; in the assay on LOX IMVI melanoma, below 14.8 nM; with HCC-2998 colon, 24.2 nM. For the same compound, the GI50 in the assay with NCI-H460 lung is 26.4 nM; in the assay with HL-60(TB) leukemia, 17.7 nM; with UACC-62 melanoma it was below 10 nM; in the assay on MDA-MB-435 it was below 10 nM; in the assay on NCI-H23 lung, below 18.6 nM; in the assay with NCI/ADR-RES ovarian, below 10 nM. For the same compound, the GI50 in the assay with OVCAR-8 ovarian was below 17.2 nM; in the assay with SNB-19 CNS it was 31 nM; in the assay on EKVX NSCLC it was 45.8 nM; in the assay on HT29 colon, 21 nM; in the assay with KM12 colon it was below 13.8 nM; in the assay with SN12C renal it was 27.2 nM. The GI50 was below 14.1 nM in the assay with SK-MEL-5 melanoma; below 10.7 nM with HS 578T breast; 26.5 nM in the assay with MCF7 breast; below 16.2 nM in the assay on MDA-MB-231 breast; 25.9 nM with SK-MEL-2 melanoma; 14500 nM in the assay on SK-MEL-28 melanoma. For the same compound, the GI50 is 23.3 nM in the assay on MDA-MB-468 breast; 32000 nM with UACC-257 melanoma; 29.6 nM with 786-0 renal; 30.1 nM with COLO 205 colon; 38.8 nM in the assay with MOLT-4 leukemia; 49.1 nM with SK-OV-3 ovarian. Besides, the GI50 in the assay on OVCAR-5 ovarian is 37.8 nM; in the assay with SF-295 CNS, below 16.4 nM; in the assay with U251 CNS, below 16.4 nM; in the assay on OVCAR-3 ovarian, below 10 nM. Further, the TGI in the assay on K-562 leukemia was above 35600 nM; with HOP-92 NSCLC, above 58700 nM; with IGROV1 ovarian, 30100 nM; with MALME-3M melanoma, 45100 nM; with SW-620 colon, above 42300 nM; in the assay on UO-31 renal it was above 88600 nM. For the same compound, the TGI with DU-145 prostate is 11900 nM; in the assay with CAKI-1 renal it was above 49000 nM; in the assay on A498 renal, 44600 nM; in the assay with TK-10 renal, above 100000 nM; in the assay on RPMI-8226 leukemia, above 39700 nM; with PC-3 prostate, above 74600 nM. Further, the TGI in the assay with SF-539 CNS is below 22.5 nM; in the assay with HCT-15 colon, 12600 nM; in the assay on HOP-62 NSCLC it was 20000 nM; in the assay on RXF 393 renal, 40000 nM; in the assay on A549 NSCLC it was above 53100 nM; with OVCAR-4 ovarian, 63600 nM. Further, the TGI with SNB-75 CNS was above 69100 nM; in the assay on NCI-H226 lung, 1480 nM; with BT-549 breast it was 126 nM; in the assay with T-47D breast, above 100000 nM; with ACHN renal, 22700 nM; with NCI-H522 lung, 20.1 nM. In addition, the TGI in the assay with CCRF-CEM leukemia was above 32500 nM; in the assay with HCT-116 colon it was 310 nM; in the assay on SF-268 CNS, above 100000 nM; in the assay with M14 melanoma, 23200 nM; in the assay with LOX IMVI melanoma it was 15100 nM; in the assay with HCC-2998 colon, 10900 nM. For the same compound, the TGI in the assay with NCI-H460 lung is 10900 nM; in the assay with HL-60(TB) leukemia it was 59.6 nM; in the assay on UACC-62 melanoma, above 55600 nM; in the assay on MDA-MB-435, 14.6 nM; with NCI-H23 lung, 23000 nM; in the assay with NCI/ADR-RES ovarian, 29.8 nM. Moreover, the TGI in the assay on OVCAR-8 ovarian is 26900 nM; in the assay on SNB-19 CNS, 53800 nM; in the assay on EKVX NSCLC it was 35000 nM; in the assay on HT29 colon, 67.3 nM; in the assay with KM12 colon, above 45800 nM; in the assay on SN12C renal, 13800 nM. Also, the TGI is 34.1 nM with SK-MEL-5 melanoma; above 78600 nM with HS 578T breast; 23300 nM with MCF7 breast; 744 nM with MDA-MB-231 breast; 42500 nM with SK-MEL-2 melanoma; above 100000 nM with SK-MEL-28 melanoma. Moreover, the TGI in the assay on MDA-MB-468 breast was 61.5 nM; in the assay with UACC-257 melanoma, above 100000 nM; in the assay on 786-0 renal, 13300 nM; in the assay with COLO 205 colon, 106 nM; in the assay with MOLT-4 leukemia, above 33500 nM; in the assay on SK-OV-3 ovarian it was above 77400 nM. Further, the TGI is above 41000 nM in the assay on OVCAR-5 ovarian, 13800 nM with SF-295 CNS, 13700 nM in the assay with U251 CNS and 11400 nM with OVCAR-3 ovarian.

Turning to `CN(C)CCCn1c2c(c3cnccc3c1=O)C(=O)c1ccccc1-2`, in the assay with MDA-MB-468 breast, the GI50 is 352 nM and the TGI was found to be 2540 nM.

For `Oc1ccc(Cc2ccc(O)c3ncccc23)c2cccnc12`, in the assay with MDA-MB-468 breast, the GI50 was 278 nM and the TGI was determined as 902 nM.

Turning to `NC(=O)c1cnc(N[C@@H]2CCCC[C@@H]2N)nc1Nc1cccc(-n2nccn2)c1`, in the assay with MDA-MB-468 breast, the GI50 was 3270 nM and the TGI came out at 11500 nM.

In the case of `CCN(CC)c1ccc(/C=C\c2cc(C)c3cc(C)ccc3n2)cc1`, in the assay with MDA-MB-468 breast, the GI50 was 3020 nM and the TGI came to 20300 nM.

Turning to `COc1ccc(/C=C/C(=O)c2cc3c(N)c(C(=O)Nc4ccccc4Cl)sc3nc2C)cc1`, in the assay on MDA-MB-468 breast, the GI50 is 279 nM and the TGI amounted to 4100 nM.
